Test results published in patent publication US11339502B2, “Combinatorial derivatives of oligopeptides having antiviral properties” (priority 2017, dated 2022).

How the values were obtained:
Assay type in all cases: cell-based
[1] = tested on: H1N1 influenza virus
[2] = tested on: vesicular stomatitis virus (reference strain)
[3] = tested on: herpes simplex virus type 1 (strain L-2)

KKRKRKRKR [derivative 54]
0%: % cytoprotective antiviral activity, Inf [1] | % cytoprotective antiviral activity, Vesic [2] | % cytoprotective antiviral activity, Herp [3]
